For assay [1], the system named is SNUC5. Put plainly: Cell viability assay (CellTiter-Glo), GI50, 3-day treatment. To be noted: 72 h; SNUC5 (BRAF^V600E CRC); 50% growth inhibition after 3 days of treatment compared to control; read-out: GI50 concentrations. Format: cell-based. The protocol:
(§1) To assess the growth/survival response of cell lines to single or combinatorial drug treatments, we used CellTiter-Glo cell viability assay (Promega; cat #G7571). Cell culture and luminescence readouts were performed in 96- and 384-well plates after 3-day treatments. GI50 corresponds to the concentration of a given drug that causes 50% inhibition of cell growth (GI50). The effects of drug combinations on cell growth were assessed by calculating fold change in VEM-sensitivity and combination index (C.I.) that were experimentally measured from ≥9 individual datapoints around drugs' GI50, i.e. at GI50, 0.5×GI50, 2×GI50 concentrations of each drug per drug combination experiment. To address the particular effects of some drug treatments on some cell lines, the choice of experimental datapoints centered around drugs' GI50 effects was adjusted by including individual datapoints ranging from ≥GI25 to ≤GI75, leading to calculate fold change in VEM-sensitivity and combination index (C.I.) from 12 to 20 individual datapoints, as previously explained (7).

In assay [2] the test system is KM20. Described as above. Format: cell-based. To be noted: 72 h; KM20 (BRAF^V600E CRC); 50% growth inhibition after 3 days of treatment compared to control; read-out: GI50 concentrations. The protocol:
as §1

Assay [3] concerns LIM2405. The assay is described as above. To be noted: 72 h; LIM2405 (BRAF^V600E CRC); 50% growth inhibition after 3 days of treatment compared to control; read-out: GI50 concentrations. Format: cell-based. As to the method: as §1
Assay [4] deals with WiDr. The description is as above. Format: cell-based. To be noted: Homo sapiens, 72 h; WiDr (BRAF^V600E CRC); 50% growth inhibition after 3 days of treatment compared to control; read-out: GI50 concentrations. The protocol:
as §1

The test system of assay [5] is OUMS23. Described as above. To be noted: OUMS-23, 72 h; OUMS23 (CRC MAP3K8^amp); 50% growth inhibition after 3 days of treatment compared to control; read-out: GI50 concentrations. Format: cell-based. The protocol: as §1
The subject of assay [6] is Sk-Mel-28. Described as above. Format: cell-based. To be noted: Homo sapiens, 72 h; Sk-Mel-28 (BRAF^V600E melanoma); 50% growth inhibition after 3 days of treatment compared to control; read-out: GI50 concentrations. The protocol:
as §1

Assay [7] has as its system A375. Described as above. Format: cell-based. To be noted: Homo sapiens, A-375, 72 h; A375 (BRAF^V600E melanoma); 50% growth inhibition after 3 days of treatment compared to control; read-out: GI50 concentrations. The protocol: as §1
For assay [8], the system named is VACO432. The assay is described as above. To be noted: 72 h; VACO432 (BRAF^V600E CRC); 50% growth inhibition after 3 days of treatment compared to control; read-out: GI50 concentrations. Format: cell-based. The protocol: as §1
Assay [9] relates to LS411N. The description is as above. Format: cell-based. To be noted: Homo sapiens, LS-411N, 72 h; LS411N (BRAF^V600E CRC); 50% growth inhibition after 3 days of treatment compared to control; read-out: GI50 concentrations. As to the method:
as §1

Assay [10] has as its system RKO1. The description is as above. Format: cell-based. To be noted: 72 h; RKO1 (BRAF^V600E CRC); 50% growth inhibition after 3 days of treatment compared to control; read-out: GI50 concentrations. As to the method:
as §1

Assay [11] deals with HT29. Described as above. Format: cell-based. To be noted: Homo sapiens, HT-29, 72 h; HT29 (BRAF^V600E CRC); 50% growth inhibition after 3 days of treatment compared to control; read-out: GI50 concentrations. As to the method:
as §1

The subject of assay [12] is beta-catenin (CTNNB1) Y654. Put plainly: Western blot of beta-catenin Y654 phosphorylation. Format: cell-based. To be noted: BRAF^V600E CRC cell lines, FIG. 4A, 11C, 12A. As to the method: (§2) For samples to be analyzed with the HT-KAM platform, cells at ˜85% confluency were washed three times with cold PBS and lysed with freshly prepared 1× cell lysis buffer (1 ml per 2.5×10^6 cells) (lOX Cell Lysis Buffer, Cell Signaling; cat. #9803) complemented with 1× of Halt Protease & Phosphatase (100×, ThermoScientific; cat. #1861281). Cell lysates were collected and spun down at 14,000 rpm for 15 min at 4° C. and supernatants stored at −80° C. For samples to be analyzed by western blot, cell lysates were prepared with RIPA lysis buffer (150 mM NaCl, 0.1% SDS, 1% Nonidet P40, 1% sodium deoxycholate and 10 mM sodium phosphate, pH 7.2) supplemented with protease and phosphatase inhibitors. After clearing by centrifugation at 12,000 rpm for 10 minutes at 4° C., the lysates were analyzed as described in the respective experiments.
(§3) For western-blot, samples were denatured by boiling in 1× Laemmli buffer and run on an 8% SDS-PAGE gel. After transfer onto a PVDF membrane and blocking with 3% BSA, the membranes were incubated with primary antibodies overnight at 4° C., washed 3 times with TBST (Tris-buffered saline containing 0.05% Tween-20), incubated with secondary antibodies for 1 hour at room temperature and developed using chemoluminescence (cat #32209 from Pierce).

Assay [13] concerns BRAF^V600E CRC cell lines. Description: Cell viability assays, drug combinations, shift in vemurafenib sensitivity and combination index. Format: cell-based. To be noted: FIG. 5C. As to the method: To assess the growth/survival response of cell lines to single or combinatorial drug treatments, we used CellTiter-Glo cell viability assay (Promega; cat #G7571). Cell culture and luminescence readouts were performed in 96- and 384-well plates after 3-day treatments.
To calculate CI values in FIGS. 2A, 2B, 2E, FIGS. 5C, 5E, 5G and FIG. 6A, we applied the Bliss Independence model (54,55), which uses experimental profiles and avoids inaccuracies that commonly occur with dose-effect curve estimation approaches. CI is calculated as CI=−log 2 (Eab/(Ea*Eb)), where Ea and Eb correspond to the effects of drugs a and b alone at a given concentration, and Eab corresponds to the combined effects of drugs a and b at these same concentrations. In this model, CI>0 indicates synergistic effect, CI=0 indicates additivity effect, CI<0 indicates antagonistic effect.
To compare the effects of triple versus dual drug combinations in FIG. 3B, we calculated CI as follow: CI=−log 2 (Eabc/(Ea*Eb)), where Ea and Eb correspond to the effects of drugs a/VEM, b/GEF alone at a given concentration, and Eabc corresponds to the combined effects of drugs a and b at these same concentrations combined with a third drug (c/DAS) at the cell line-specific GI50 of DAS.

Assay [14] relates to SFK. Description: Western blot of SFK activation (Y419 phosphorylation). Format: cell-based. To be noted: BRAF^V600E CRC cell lines. The protocol:
as §2, §3
Antibodies anti-HSP90 was procured from Santa Cruz Biotechnologies (H-114, cat #7947). […]

Assay [15] has as its system SRC. Put plainly: Automated IHC of active and total SRC in PDX tumors. Format: in vivo, mice. To be noted: both PDX models after 3 or 21 days of treatment; FIGS. 1E, 1F, 8B, 8C. The protocol:
Primary antibody was diluted in Discovery Ab Diluent.
To detect phospho-Y419 SRC, phospho-Src (Y419) […] rabbit polyclonal supplied by R&D Systems (Cat #AF2685) was used at a titration of 1:50. […] Inhibitor was applied for 16 min.
To detect total SRC, TOTAL SRC (36D1) rabbit monoclonal manufactured by Cell Signaling Technology (Cat #2109) was used at a titration of 1:800. […] Inhibitor was applied for 16 minutes.

In the case of `COc1cc2ncnc(Nc3ccc(F)c(Cl)c3)c2cc1OCCCN1CCOCC1` [gefitinib, N-(3-chloro-4-fluorophenyl)-7-methoxy-6-(3-morpholin-4-ylpropoxy)quinazolin-4-amine], the GI50 came to 30 µM in assay [1]; 20 µM in assay [2]; 30 µM in [3]; 10 µM in assay [4]; 40 µM in [5]; 20 µM in [6]. In addition, the GI50 amounted to 30 µM in assay [7]; 7.5 µM in assay [8]; 30 µM in [9]; 40 µM in [10]; 25 µM in assay [11].

In the case of `Cc1nc(Nc2ncc(C(=O)Nc3c(C)cccc3Cl)s2)cc(N2CCN(CCO)CC2)n1` [dasatinib, N-(2-chloro-6-mnethylphenyl)-2-[[6-[4-(2-hydroxyethyl)piperazin-1-yl]-2-methylpyrimidin-4-yl]amino]-1,3-thiazole-5-carboxamide], the GI50 in assay [1] turned out to be 6.5 µM; in assay [2], 0.8 µM; in assay [3] it was 1.5 µM; in [4] it was 0.9 µM; in [5], 1.9 µM; in assay [6], 6.5 µM. Moreover, the GI50 in [7] was found to be 3.5 µM; in [8] it was 2 µM; in assay [9] it was 3 µM; in [10], 10 µM; in assay [11], 8 µM.

On to `CCCCC[C@H](O)/C=C/[C@H]1[C@H](O)CC(=O)[C@@H]1C/C=C\CCCC(=O)O` [PGE2, Prostaglandin E2], for which the “phosphorylation of beta-catenin (CTNNB1) at Y654” value in [12] was “increase in phosphorylation”. For the same molecule, the “increase in resistance to vemurafenib” value in assay [13] (BRAF^V600E CRC cells treated with PGE2, 3-day cell viability assays) was 2 to 4 fold. Also, the CI scores entry in assay [13] (PGE2 with vemurafenib in BRAF^V600E CRC cells, Bliss model) is “antagonism”. Further, in assay [14], the “SFK activation (phosphorylation of Y419)” value is on record as “increase in SFK activation”.

For `CC(C)(C)c1nc(-c2cccc(NS(=O)(=O)c3c(F)cccc3F)c2F)c(-c2ccnc(N)n2)s1` [dabrafenib, N-[3-[5-(2-Amino-4-pyrimidinyl)-2-(2-methyli-2-propanyl)-1,3-tliazol-4-yl]-2-fluorophenyl]-2,6-difluorobenzenesulfonarmide], in [15], the “active and total SRC (IHC)” value is “statistically significant increases”.

As for `CC(=O)Nc1cccc(-n2c(=O)n(C3CC3)c(=O)c3c(Nc4ccc(I)cc4F)n(C)c(=O)c(C)c32)c1` [trametinib, N-[3-[3-cyclopropyl-5-(2-fluoro-4-iodoanilino)-6,8-dimethyl-2,4,7-trioxopyrido[4,3-d]pyrimidin-1-yl]phenyl]acetamide], in assay [15], the “active and total SRC (IHC)” value was “statistically significant increases”.

Source of the values: patent US20260115209A1, “COMBINATION THERAPY INCLUDING COX-2 INHIBITOR FOR THE TREATMENT OF CANCER” (THE REGENTS OF THE UNIVERSITY OF CALIFORNIA, priority 2022, published 2026).
